Results from US20220144847A1, “HETEROCYCLIC COMPOUND, PHARMACEUTICAL COMPOSITION COMPRISING SAME, PREPARATION METHOD THEREFOR, AND USE THEREOF” (Sichuan Kelun-Biotech Biopharmaceutical Co., Ltd., priority 2019, published 2022).

Columns and labels:
RET-V804M = RET-V804M (Homo sapiens, UniProt P07949, V804M); assay: RET inhibition experiment (HTRF KinEASE-TK kit), mutant RET-V804M; type: biochemical; conditions: for inhibition at 0.01 µM: 10 nM (Table 2); for IC50: read-out: The IC50 (nM) for inhibiting V804M
Chain of RET-V804M (P07949 29-1114 V804M): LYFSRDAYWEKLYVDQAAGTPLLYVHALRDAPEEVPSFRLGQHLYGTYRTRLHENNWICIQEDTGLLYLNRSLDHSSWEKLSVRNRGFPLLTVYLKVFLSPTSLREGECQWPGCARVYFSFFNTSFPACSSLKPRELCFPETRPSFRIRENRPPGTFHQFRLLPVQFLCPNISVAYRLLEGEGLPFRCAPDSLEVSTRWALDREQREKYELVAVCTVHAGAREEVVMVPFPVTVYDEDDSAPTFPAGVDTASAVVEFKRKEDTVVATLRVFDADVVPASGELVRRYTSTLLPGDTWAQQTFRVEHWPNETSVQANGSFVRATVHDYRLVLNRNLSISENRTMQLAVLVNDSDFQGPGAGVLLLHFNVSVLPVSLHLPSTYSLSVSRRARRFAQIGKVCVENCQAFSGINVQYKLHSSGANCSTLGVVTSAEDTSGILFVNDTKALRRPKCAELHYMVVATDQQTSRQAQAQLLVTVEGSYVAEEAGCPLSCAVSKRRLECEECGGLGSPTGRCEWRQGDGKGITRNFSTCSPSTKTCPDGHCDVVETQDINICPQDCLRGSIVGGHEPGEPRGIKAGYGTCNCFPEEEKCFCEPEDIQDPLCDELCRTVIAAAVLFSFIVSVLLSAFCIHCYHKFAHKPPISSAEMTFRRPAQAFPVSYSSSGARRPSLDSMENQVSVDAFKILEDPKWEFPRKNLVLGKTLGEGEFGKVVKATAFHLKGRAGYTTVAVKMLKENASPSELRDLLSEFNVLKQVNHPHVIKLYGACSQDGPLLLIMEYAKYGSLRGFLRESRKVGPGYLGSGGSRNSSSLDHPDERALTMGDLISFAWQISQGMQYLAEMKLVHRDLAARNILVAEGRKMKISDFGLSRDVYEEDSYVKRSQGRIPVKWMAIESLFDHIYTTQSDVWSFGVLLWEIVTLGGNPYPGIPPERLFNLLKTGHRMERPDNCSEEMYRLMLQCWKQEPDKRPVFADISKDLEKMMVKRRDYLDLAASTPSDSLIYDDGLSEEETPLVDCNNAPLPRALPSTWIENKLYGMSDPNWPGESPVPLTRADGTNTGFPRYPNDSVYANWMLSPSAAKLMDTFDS
Method: Experimental method: According to the instructions of the HTRF KinEASE-TK kit (Cisbio), the compounds of the present disclosure were tested for their inhibitory effects on the activity of wild-type RET enzyme, mutant RET enzyme (RET-V804M, RET-V804L, and RET-M918T) and fusion-type RET enzyme (RET-CCDCl6). After pre-incubation of different RET enzymes and different concentrations of the test compounds at room temperature for 30 min, a substrate and adenosine triphosphate (ATP) were added to initiate the reaction. After incubation at room temperature for 40 min, TK antibody-cryptate and streptavidin-XL665 were added, and the test was performed after incubation at room temperature for 45 min. With the solvent group (DMSO) as the negative control and the buffer group (without RET enzyme) as the blank control, the relative inhibitory activity percentages (i.e., inhibition rates) of different concentrations of the compounds were computed as per the following formula:
(§1) Relative inhibitory activity percentage=1−(compound group of different concentrations−blank control)/(negative control−blank control)*100%
(§2) The relative inhibitory activity percentages of different concentrations of the compounds were plotted with respect to the compound concentrations, and the curve was fitted according to a four-parameter model to compute the IC50 value as per the following formula:
(§3) y=min+(max−min)/(1+(x/IC50)^(−Hillslope))
(§4) where y is the relative inhibitory activity percentage, max is the maximum value of the fitted curve, min is the minimum value of the fitted curve, x is the logarithmic concentration of the compound, and Hillslope is the slope of the curve.

VEGFR2 = VEGFR2 (Homo sapiens, UniProt P35968); assay: VEGFR2 inhibition experiment (HTRF KinEASE-TK kit); type: biochemical; conditions: for inhibition at 0.3 µM: 300 nM; for inhibition at 0.1 µM: 100 nM; for inhibition at 0.03 µM: 30 nM
Chain of VEGFR2 (P35968 20-1356, species assumed): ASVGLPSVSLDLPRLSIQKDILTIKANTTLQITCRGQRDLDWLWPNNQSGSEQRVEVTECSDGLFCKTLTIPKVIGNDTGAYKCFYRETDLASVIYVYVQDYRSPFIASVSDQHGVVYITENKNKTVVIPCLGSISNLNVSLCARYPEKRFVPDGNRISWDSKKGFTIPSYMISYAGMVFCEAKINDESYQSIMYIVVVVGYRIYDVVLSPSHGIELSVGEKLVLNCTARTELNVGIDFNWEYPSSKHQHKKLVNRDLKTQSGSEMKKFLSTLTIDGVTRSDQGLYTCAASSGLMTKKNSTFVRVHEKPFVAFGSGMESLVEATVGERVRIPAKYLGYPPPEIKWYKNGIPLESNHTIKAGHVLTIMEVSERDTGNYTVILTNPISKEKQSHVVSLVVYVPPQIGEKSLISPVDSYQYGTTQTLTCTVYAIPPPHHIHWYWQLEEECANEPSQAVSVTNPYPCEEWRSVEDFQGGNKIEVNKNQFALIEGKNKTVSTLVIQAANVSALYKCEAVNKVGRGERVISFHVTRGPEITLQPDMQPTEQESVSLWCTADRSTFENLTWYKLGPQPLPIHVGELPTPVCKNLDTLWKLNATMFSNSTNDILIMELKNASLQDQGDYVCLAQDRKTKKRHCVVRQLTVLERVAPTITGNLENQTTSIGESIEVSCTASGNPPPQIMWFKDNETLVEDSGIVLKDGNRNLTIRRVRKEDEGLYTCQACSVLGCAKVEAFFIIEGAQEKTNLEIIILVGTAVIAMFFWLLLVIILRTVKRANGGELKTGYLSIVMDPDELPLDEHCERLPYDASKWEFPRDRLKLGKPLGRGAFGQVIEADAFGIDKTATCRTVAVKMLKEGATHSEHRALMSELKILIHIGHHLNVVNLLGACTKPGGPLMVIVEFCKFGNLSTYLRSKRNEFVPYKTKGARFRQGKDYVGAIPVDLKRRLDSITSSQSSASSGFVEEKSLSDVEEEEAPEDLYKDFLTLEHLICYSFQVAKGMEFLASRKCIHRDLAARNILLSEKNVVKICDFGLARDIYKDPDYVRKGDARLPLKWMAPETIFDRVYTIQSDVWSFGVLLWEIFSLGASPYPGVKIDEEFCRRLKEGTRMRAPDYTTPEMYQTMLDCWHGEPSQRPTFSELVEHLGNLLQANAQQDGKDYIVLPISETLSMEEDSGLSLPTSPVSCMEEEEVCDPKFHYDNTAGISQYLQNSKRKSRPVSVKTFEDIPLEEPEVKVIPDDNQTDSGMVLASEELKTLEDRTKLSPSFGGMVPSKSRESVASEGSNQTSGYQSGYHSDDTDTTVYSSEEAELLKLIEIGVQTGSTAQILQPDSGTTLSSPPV
Method: Experimental method: According to the instructions of the HTRF KinEASE-TK kit (Cisbio), the compounds of the present disclosure were tested for their inhibitory effects on the VEGFR2 enzyme activity. After pre-incubation of the VEGFR2 enzyme and different concentrations of test compounds at room temperature for 30 min, a substrate and adenosine triphosphate (ATP) were added to initiate the reaction. After incubation at room temperature for 40 min, TK antibody-cryptate and streptavidin-XL665 were added, and the test was performed after incubation at room temperature for 45 min. With the solvent group (DMSO) as the negative control and the buffer group (without VEGFR2 enzyme) as the blank control, the relative inhibitory activity percentages (i.e., inhibition rates) of different concentrations of the compounds were computed as per the following formula:
as §1, §2, §3, §4

[1] = read-out: Inhibition rate on RET-V804M
[2] = read-out: Inhibition rate on VEGFR2

SMILES	inhibition at 0.01 µM (RET-V804M; [1]) [%]	inhibition at 0.1 µM (VEGFR2; [2]) [%]	IC50 (RET-V804M) [nM]	other results
Cc1cc(Nc2cc(C)[nH]n2)nc(-c2ccc(N3CC4CC(C3)N4Cc3ccc(-c4cc(F)cnc4C)nc3)nc2)n1 [Compound 8, 2-(6-(6-((5′-fluoro-2′-methyl-[2,3′-dipyridyl]-5-yl)methyl)-3,6-diazabicyclo[3.1.1]heptan-3-yl)pyridin-3-yl)-6-methyl-N-(5-methyl-1H-pyrazol-3-yl)pyrimidin-4-amine]	46			inhibition at 0.3 µM (VEGFR2; [2]): 5%
COc1ccc(-c2ccc(CN3C4CC3CN(c3ccc(-c5nc(C)cc(Nc6cc(C)[nH]n6)n5)cn3)C4)cn2)cn1 [Compound 7, 2-(6-(6-((6′-methoxy-[2,3′-dipyridyl]-5-yl)methyl)-3,6-diazabicyclo[3.1.1]heptan-3-yl)pyridin-3-yl)-6-methyl-N-(5-methyl-1H-pyrazol-3-yl)pyrimidin-4-amine]	46	16		
Cc1cc(Nc2cc(C)[nH]n2)nc(-c2ccc(N3CC4CC(C3)N4Cc3ccc(-c4cccn4C)nc3)nc2)n1 [Compound 128, 6-methyl-N-(5-methyl-1H-pyrazol-3-yl)-2-(6-(6-((6-(1-methyl-1H-pyrrol-2-yl)pyridin-3-yl)methyl)-3,6-diazabicyclo[3.1.1]heptan-3-yl)pyridin-3-yl)pyrimidin-4-amine]	48	20		
Cc1cc(Nc2cc(C)[nH]n2)nc(-c2ccc(N3CC4CC(C3)N4Cc3ccc(-n4ccc(F)n4)cc3)nc2)n1 [Compound 89, 2-(6-(6-(4-(3-fluoro-1H-pyrazol-1-yl)benzyl)-3,6-diazabicyclo[3.1.1]heptan-3-yl)pyridin-3-yl)-6-methyl-N-(5-methyl-1H-pyrazol-3-yl)pyrimidin-4-amine]	70	16		
Cc1cc(Nc2cc(C)[nH]n2)nc(-c2ccc(N3CC4CC(C3)N4C(C)c3ccc(-n4cccn4)nc3)nc2)n1 (single isomer, unassigned) [Compound 125-2]	82			inhibition at 0.3 µM (VEGFR2; [2]): 63%
Cc1cc(Nc2cc(C)[nH]n2)nc(-c2ccc(N3CC4CC(C3)N4Cc3cnc(C)s3)nc2)n1 [Compound 15, 6-methyl-N-(5-methyl-1H-pyrazol-3-yl)-2-(6-(6-((2-methylthiazol-5-yl)methyl)-3,6-diazabicyclo[3.1.1]heptan-3-yl)pyridin-3-yl)pyrimidin-4-amine]		29		inhibition at 0.1 µM (RET-V804M; 100 nM (Table 2), read-out: Inhibition rate on RET-V804M): 91%
Cc1cc(Nc2cc(C)[nH]n2)nc(-c2ccc(N3CC4CC(C3)N4Cc3ccc(F)cn3)nc2)n1 [Compound 70, 2-(6-(6-((5-fluoropyridin-2-yl)methyl)-3,6-diazabicyclo[3.1.1]heptan-3-yl)pyridin-3-yl)-6-methyl-N-(5-methyl-1H-pyrazol-3-yl)pyrimidin-4-amine]		14	41.4 ± 3.73	
Cc1cc(Nc2cc(C)[nH]n2)nc(-c2ccc(N3CC4CC(C3)N4Cc3ccc(-n4ccc(CO)n4)nc3)nc2)n1 [Compound 137, (1-(5-((3-(5-(4-methyl-6-((5-methyl-1H-pyrazol-3-yl)-amino)pyrimidin-2-yl)pyridin-2-yl)-3,6-diazabicyclo[3.1.1]heptan-6-yl)methyl)pyridin-2-yl)-1H-pyrazol-3-yl)methanol]	93			inhibition at 0.03 µM (VEGFR2; [2]): 26%
Cc1cc(Nc2cc(C)[nH]n2)nc(-c2ccc(N3CC4CC(C3)N4Cc3ccc(-c4cscn4)nc3)nc2)n1 [Compound 129, 6-methyl-N-(5-methyl-1H-pyrazol-3-yl)-2-(6-(6-((6-(thiazol-4-yl)pyridin-3-yl)methyl)-3,6-diazabicyclo[3.1.1]heptan-3-yl)pyridin-3-yl)pyrimidin-4-amine]	84			inhibition at 0.03 µM (VEGFR2; [2]): 52%
Cc1cc(Nc2cc(C)[nH]n2)nc(-c2ccc(N3CC4CC(C3)N4Cc3ccc(-n4nccc4OC4CCC4)nc3)nc2)n1 [Compound 27, 2-(6-(6-((6-(5-cyclobutoxy-1H-pyrazol-1-yl)pyridin-3-yl)methyl)-3,6-diazabicyclo[3.1.1]heptan-3-yl)pyridin-3-yl)-6-methyl-N-(5-methyl-1H-pyrazol-3-yl)pyrimidin-4-amine]	87			inhibition at 0.03 µM (VEGFR2; [2]): 23%
Cc1cc(Nc2cc(C)[nH]n2)nc(-c2ccc(N3CC4CC(C3)N4Cc3ccc(-n4cc(Cl)c(C)n4)nc3)nc2)n1 [Compound 28, 2-(6-(6-((6-(4-chloro-3-methyl-1H-pyrazol-1-yl)pyridin-3-yl)methyl)-3,6-diazabicyclo[3.1.1]heptan-3-yl)pyridin-3-yl)-6-methyl-N-(5-methyl-1H-pyrazol-3-yl)pyrimidin-4-amine]			10.4 ± 1.38	inhibition at 0.3 µM (VEGFR2; [2]): 23%
Cc1ccc(OC2CCN(c3ccc(-c4nc(C)cc(Nc5cc(C)[nH]n5)n4)cn3)CC2)cn1 [Compound 119, 6-methyl-N-(5-methyl-1H-pyrazol-3-yl)-2-(6-(4-((6-methylpyridin-3-yl)oxy)piperidin-1-yl)pyridin-3-yl)pyrimidin-4-amine]		-7	14.2 ± 1.27	
Cc1cc(Nc2cc(C)[nH]n2)nc(-c2ccc(N3CC4CC(C3)N4Cc3ccc(-c4ccc(C)o4)nc3)nc2)n1 [Compound 133, 6-methyl-N-(5-methyl-1H-pyrazol-3-yl)-2-(6-(6-((6-(5-methylfuran-2-yl)pyridin-3-yl)methyl)-3,6-diazabicyclo[3.1.1]heptan-3-yl)pyridin-3-yl)pyrimidin-4-amine]	82			inhibition at 0.05 µM (VEGFR2; 50 nM, read-out: Inhibition rate on VEGFR2): 28%
Cc1cc(Nc2cc(C)[nH]n2)nc(-c2ccc(N3CC4CC(C3)N4Cc3ccc(-c4ccc[nH]4)nc3)nc2)n1 [Compound 123, 2-(6-(6-((6-(1H-pyrrol-2-yl)pyridin-3-yl)methyl)-3,6-diazabicyclo[3.1.1]heptan-3-yl)pyridin-3-yl)-6-methyl-N-(5-methyl-1H-pyrazol-3-yl)pyrimidin-4-amine]			1.88 ± 0.11	inhibition at 0.03 µM (VEGFR2; [2]): 56%
Cc1cc(Nc2cc(C)[nH]n2)nc(-c2ccc(N3CC4CC(C3)N4Cc3ccc(-n4nc(C)cc4C)nc3)nc2)n1 [Compound 11, 2-(6-(6-((6-(3,5-dimethyl-1H-pyrazol-1-yl)pyridin-3-yl)methyl)-3,6-diazabicyclo[3.1.1]heptan-3-yl)pyridin-3-yl)-6-methyl-N-(5-methyl-1H-pyrazol-3-yl)pyrimidin-4-amine]			7.22 ± 0.58	IC50 (VEGFR2; read-out: IC50 for inhibiting VEGFR2): 158 ± 25.1 nM
Cc1cc(Nc2cc(C)[nH]n2)nc(-c2ccc(N3CC4CC(C3)N4Cc3ccc(-n4cc(F)cn4)nc3)nc2)c1 [Compound 6, 6′-(6-((6-(4-fluoro-1H-pyrazol-1-yl)pyridin-3-yl)methyl)-3,6-diazabicyclo[3.1.1]heptan-3-yl)-4-methyl-N-(5-methyl-1H-pyrazol-3-yl)-[2,3′-dipyridyl]-6-amine]	83	-11		
Cc1cc(Nc2cc(C)[nH]n2)nc(-c2ccc(N3CC4CC(C3)N4Cc3ccc(Cl)cc3)nc2)n1 [Compound 82, 2-(6-(6-(4-chlorobenzyl)-3,6-diazabicyclo[3.1.1]heptan-3-yl)pyridin-3-yl)-6-methyl-N-(5-methyl-1H-pyrazol-3-yl)pyrimidin-4-amine]	43	15		
Cc1cc(Nc2cc(C)[nH]n2)nc(-c2ccc(N3CC4CC(C3)N4Cc3ccc(-n4cc(F)c(C5CC5)n4)nc3)nc2)n1 [Compound 124, 2-(6-(6-((6-(3-cyclopropyl-4-fluoro-1H-pyrazol-1-yl)pyridin-3-yl)methyl)-3,6-diazabicyclo[3.1.1]heptan-3-yl)pyridin-3-yl)-6-methyl-N-(5-methyl-1H-pyrazol-3-yl)pyrimidin-4-amine]			10.7 ± 0.98	inhibition at 0.03 µM (VEGFR2; [2]): 41%
Cc1cc(Nc2cc(C3CC3)[nH]n2)nc(-c2ccc(N3CC4CC(C3)N4Cc3ccc(-n4cc(F)cn4)nc3)nc2)n1 [Compound 10, N-(5-cyclopropyl-1H-pyrazol-3-yl)-2-(6-(6-((6-(4-fluoro-1H-pyrazol-1-yl)pyridin-3-yl)methyl)-3,6-diazabicyclo[3.1.1]heptan-3-yl)pyridin-3-yl)-6-methylpyrimidin-4-amine]			3.97 ± 0.3	inhibition at 0.3 µM (VEGFR2; [2]): 69%
Cc1cc(Nc2cc(C)[nH]n2)nc(-c2ccc(N3CC4CC(C3)N4Cc3ccc(-n4cccn4)cc3)nc2)n1 [Compound 86, 2-(6-(6-(4-(1H-pyrazol-1-yl)benzyl)-3,6-diazabicyclo[3.1.1]heptan-3-yl)pyridin-3-yl)-6-methyl-N-(5-methyl-1H-pyrazol-3-yl)pyrimidin-4-amine]	64	52		
